Results on one compound are retold here after PMC13372681, “A natural depsipeptide antibiotic binds the E-site of the bacterial ribosome” (Nature, 2026).

For data set [1] the following is noted: human plasma 1:1 with PBS pH 7.4, 10 µM, 37 °C, 0–120 min, LC–MS, % remaining; duplicate, two biological replicates.
Data set [2] is described as follows: Acute tolerability in mice. Format: in vivo. To be noted: doses up to 220 mg kg^−1 per day (divided into four doses over 20 hours, subcutaneous).
The subject of the next data set is E. coli ΔtolC ΔbamB. The note with it: broth microdilution. A general note: In broth dilution the organism is exposed to a series of concentrations in liquid medium.

In brackets after ≈: the same amount, converted by molar mass. Where two headings read alike, the source gives them in different places. Where a SMILES comes first, the peptide text is derived from it. Bridges are numbered along the chain shown (N, C = ends). [ ]: non-standard residue; d: D form. dOrn = NCCC[C@@H](N)C(=O)O

Broadly, the MIC is the lowest concentration that inhibits growth of the organism. A low value points to inhibition by little substance. `C[C@@H](O)[C@@H]1NC(=O)[C@@H](CCCNC(=N)N)NC(=O)[C@@H](CCCNC(=N)N)NC(=O)[C@@H](CC(N)=O)NC(=O)[C@@H](NC(=O)[C@@H](Cc2ccccc2)NC(=O)[C@@H](CCCN)NC(=O)[C@H](N)CCCNC(=N)N)[C@@H](C)OC(=O)[C@H](Cc2c[nH]cn2)NC1=O` [MKM-A, manikomycin] (H-[dR][dOrn][dF]T[dN][dR][dR]TH; ester 4-C): in data set [1], the stability in plasma result is recorded as “excellent stability”. Also, in data set [2], the acute tolerability result is “acceptable acute tolerability”. In addition, the MIC in the data set with E. coli ΔtolC ΔbamB (Ca+ MHB Medium) is 8 µg/mL (≈ 6.76 µM); against E. coli ΔtolC ΔbamB (MOPS Minimal Medium), 2 µg/mL (≈ 1.69 µM); in the data set on E. coli ΔtolC ΔbamB (RPMI Medium), 2 µg/mL (≈ 1.69 µM); in the data set on Bacillus subtilis 168, over 64 µg/mL.
